Assay results reported in patent US7993855B2, “Use of additives to lower the rate of a binding reaction” (Aokin AG, priority 2006, dated 2011).
Counter-ions that a name gives are not always drawn.

How the values were obtained:
anti-thyroxine [1] = assay: Fluorescence polarization kinetic assay, F-thyroxine/anti-thyroxine system; assay type: binding; details: for Rate of the antibody reaction with increasing concentrations of additive: PBS with 5% 2-propanol, BSA 0.1 μM, Fluorescein-Thyroxine 1 nM, Anti-Thyroxine 1:300
Experimental: An initial stock solution of anti-thyroxine sera was prepared. In particular, 1 ml of polyclonal anti-thyroxine sera containing 10 mg/ml IgG (Sigma) was diluted 1:5 in PBS buffer, pH 7.5. The final concentration of IgG in the stock solution was about 2 mg/ml.
An initial stock solution of fluorescein-labeled analyte (F-thyroxine) was prepared. […] First, 5 mg (4×10^−6 moles) of F-thyroxine was diluted to 10 ml in PBS to get a 4.1×10^−4 M solution of F-thyroxine. This solution was then further diluted 100-fold in PBS. The final concentration of F-thyroxine in the stock solution was about 4.1×10^−6 M.
All steps are performed at ambient temperature. The total final reaction volume after all additions is 3030 μl. • 1. Add 20 μl or 0 μl (control) anti-sera stock solution to about 2980 μl of Buffer 1. • 2. Pipette the diluted anti-sera solution prepared in step 1 up and down from 1 to 10 seconds to thoroughly mix. • 3. Add between 0 and 20 μl thyroxine stock solution (e.g., 0, 0.5, 2.0, 5.0 and 20 μl) to the mixed anti-sera from step 2. • 4. Pipette the mixture formed in step 3 up and down for 1 to 10 seconds and then incubate for 30 to 300 seconds. • 5. Add 10 μl of the Fluorescein-labeled thyroxine stock solution to the incubated mixture from step 4. • 6. Pipette the mixture formed in step 5 up and down for 1 to 10 seconds and begin measuring polarization (P), Polarized Fluorescence Intensity Difference (V−H) or quenching (V+H total intensity) versus time for between 10 and 7200 seconds after end of mixing in a direct readout polarometer or between 0.1 and 7200 seconds after end of mixing with a stopped-flow polarometer. • 7. Determine the rate of reaction (initial rates) and plot versus amount of thyroxine stock solution added in step 3 to produce a standard curve. • 8. Against a standard curve, an unknown amount of thyroxine can be measured by comparison of initial rate measurement (speed of reaction) of unknown with the standard curve. […]

human sera = assay: Non-specific binding of F-thyroxine in presence of human sera; details: Buffer 2 (1.0 M sodium benzoate), 50 μl human sera, V−H over 10-600 s
Experimental: With reference to FIG. 2, experiments were performed to determine the effects of an additive on specific and non-specific binding. The additive used in the present example was sodium benzoate. The materials described in Example 1 and the measurement methodology described in Example 2 were used. In particular, 50 μl of human sera was added to 3000 μl of Buffer 2 or PBS at pH 7.5 (no additive control) and thoroughly mixed by pipetting for 1 to 10 seconds. To this was added 0 μl of unlabeled thyroxine and 0 μl, 20 μl or 50 μl of anti-sera stock solution. The mixture was thoroughly mixed by pipetting for 1 to 10 seconds. Then, 5 μl of the fluorescein-labeled thyroxine stock solution was added. This was followed by mixing for 1 to 10 seconds by pipetting. Then, d(V−H)/dt measurements were made versus time for between 10 and 600 seconds. This protocol was followed for Experiments 6-9 in Table 2.

serum components = assay: Initial non-specific binding between F-thyroxine and serum components (P at t=0); details: experiments 6-3 through 6-7: serum, increasing sodium benzoate; PBS with 10% 2-propanol
Experimental: The buffer and stock solutions described in Example 1 and the measurement methodology described in Example 2 were used.
• Fluorescein-Thyroxine (1 nM) • Anti-Thyroxine (1:300 dilution) • PBS with 10% 2-propanol • Benzoate in different concentrations • At t=0 s antibody was pipetted into the cuvette. • A 3 ml cuvette was used, the total volume in the cuvette was 2 ml. A small magnetic stirrer was used for mixing
In example 6, the reactions between F-Thyroxine and Anti-Thyroxine, which were carried out in the presence of serum under different reaction conditions, are compared (FIG. 4). There are seven different amounts of sodium benzoate, between 0 and 1.0 Molar in the cuvette. The reaction was performed in a phosphate buffered saline buffer containing 10% 2-propanol. The table in FIG. 4 lists the two important parameters.

anti-thyroxine [2] = assay: Fluorescence polarization kinetic assay, rhodamine-labeled thyroxine (ROX-T4)/anti-thyroxine system; assay type: binding; details: Rox-Thyroxine 1.5 nM, Anti-Thyroxine 1:300, PBS with 10% 2-propanol, serum 1:500
Experimental: The protocol used is described below. […] Use clean glassware, washed with isopropanol. • 2. Make a 0.5 M solution of sodium benzoate. • 3. […] This will be named BUFFER. • 4. […] The absorbance spectrum is measured using a UV-VIS spectrophotometer, 400 nm to 800 nm. This spectrum is used to define the absorbance of the background as zero and to control that it is actually zero. • 6. […] Measure the absorbance UV-VIS, 400 nm to 800 nm. […] Using a rotating polarometer with a 75 watt Xenon short-arc lamp. The rotating polarizer has three channels: Polarization (P), Total Intensity (V+H), and V−H. • 8. […] Measure P, V+H and V−H after short mixing and 30 second equilibration. […] Add 10 μl. Antibody solution (anti-thyroxine in PBS, dilution unknown, probably 5 mg in 1000 μl PBS and further diluted 1:10 in PBS). New volume is 3017 μl. Measure P, V+H and V−H after short mixing.

anti-thyroxine [3] = assay: Fluorescence polarization kinetic assay, F-thyroxine/anti-thyroxine system; assay type: binding; details: PBS with 4.75% 2-propanol, BSA 0.1 μM, Anti-Thyroxine 1:300

## O=C([O-])c1ccccc1.[Na+] [sodium benzoate]
anti-thyroxine [1]; Buffer 1 (0.5 M sodium benzoate in PBS, pH 7.5) versus PBS
  Reaction between F-thyroxine and its specific antibody capable of being followed (kinetic curve): only capable of being followed when the reaction was performed in the presence of an additive
anti-thyroxine [1]; Buffer 2 (1.0 M sodium benzoate), 50 μl human sera, 0/20/50 μl antiserum, V−H over 10-600 s
  Effect of additive on specific binding: does not inhibit specific binding
anti-thyroxine [1]
  Rate of the antibody reaction with increasing concentrations of additive: substantially slowed
anti-thyroxine [1]; experiments 6-3 through 6-7: serum, increasing sodium benzoate, PBS with 10% 2-propanol
  Reaction rate relative to its value from zero additive agent: about 30%
Human sera
  Effect of additive on non-specific binding: inhibits non-specific binding
Serum components
  Polarization value before addition of antibody (t=0): 100 mP
anti-thyroxine [2]
  Rate of the reaction with increasing concentrations of additive: substantially slowed

## O=C([O-])c1ccccc1.[K+] [potassium benzoate]
anti-thyroxine [3]; Fluorescein-Thyroxine 1 nM
  Rate of the antibody reaction with increasing concentrations of additive: substantially slowed

## O=C1CCC(=O)N1O [N-hydroxysuccinimide]
anti-thyroxine [3]; Fluorescein-Thyroxine 1.5 nM
  Rate of the antibody reaction with increasing concentrations of additive: substantially slowed

## O=C([O-])C(Cl)Cl.[Na+] [sodium dichloroacetate]
anti-thyroxine [3]; Fluorescein-Thyroxine 1 nM
  Rate of the antibody reaction with increasing concentrations of additive: substantially slowed

## N=C(N)N [guanidine hydrochloride]
anti-thyroxine [1]
  Rate of the antibody reaction with increasing concentrations of additive: substantially slowed

## [Cl-].[Na+] [sodium chloride]
anti-thyroxine [3]; Fluorescein-Thyroxine 1.5 nM
  Rate of the antibody reaction with increasing concentrations of additive: not substantially slowed

## O=C([O-])CCl.[Na+] [sodium chloroacetate]
anti-thyroxine [3]; Fluorescein-Thyroxine 1 nM
  Rate of the antibody reaction with increasing concentrations of additive: substantially slowed

## Cc1ccc(S(=O)(=O)O)cc1.[Na] [sodium p-tolulene sulfonate, sodium p-toluene sulfonate]
anti-thyroxine [1]
  Rate of the antibody reaction with increasing concentrations of additive: substantially slowed
